Numbering of substitutions follows the chain as printed.
Experiments:
UBE2F [1] = target: T1, UBE2F (Homo sapiens, UniProt Q969M7, F153A/D154A/H165A); assay: thermal shift assay with Western blotting; type: binding; conditions: N152 pocket mutant
T1 construct: recombinant, pET-28a with His-SUMO tag cleaved by Ulp1 (un-tagged), expressed in E. coli Rosetta 2(DE3) pLysS
T1 sequence (Q969M7 1-185 F153A/D154A/H165A): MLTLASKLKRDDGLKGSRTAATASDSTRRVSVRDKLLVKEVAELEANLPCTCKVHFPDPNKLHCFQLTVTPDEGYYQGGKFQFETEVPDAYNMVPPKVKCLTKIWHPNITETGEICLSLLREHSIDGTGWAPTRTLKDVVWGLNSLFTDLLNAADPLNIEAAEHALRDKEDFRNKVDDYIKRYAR

UBE2F [2] = target: T2, UBE2F (Homo sapiens, UniProt Q969M7, K97A/K99A/R121A); assay: thermal shift assay with Western blotting; type: binding; conditions: V98 pocket mutant
T2 construct: recombinant, pET-28a with His-SUMO tag cleaved by Ulp1 (un-tagged), expressed in E. coli Rosetta 2(DE3) pLysS
T2 sequence (Q969M7 1-185 K97A/K99A/R121A): T1 sequence (Q969M7 1-185 F153A/D154A/H165A) with K97A, K99A, R121A, A153F, A154D, A165H

UBE2F [3] = target: T3, UBE2F (Homo sapiens, UniProt Q969M7); assay: differential scanning fluorimetry, SYPRO orange; type: binding; conditions: tested as mesylate salt; 2 μM UBE2F, 1 °C/min from 25 to 95 °C; maximum of a dose series (printed 'up to')
T3 construct: recombinant, pET-28a with His-SUMO tag cleaved by Ulp1 (un-tagged), expressed in E. coli Rosetta 2(DE3) pLysS
T3 sequence (Q969M7 1-185): T1 sequence (Q969M7 1-185 F153A/D154A/H165A) with A153F, A154D, A165H

UBE2F [4] = target: T3, UBE2F; assay: E2 NEDD8 thioester assay, iFluor 680-NEDD8, SDS-PAGE fluorescence scan; type: biochemical

With `Cc1ccc(C(=O)N2CCN(c3ccc(NC(=O)/C=C/c4c[nH]c5ncccc45)cc3)CC2)cc1` [iV26-9-10-4, HA-9104] the thermal stabilization (UBE2F [1]) was “N152 mutant was very thermo-stable and largely resistant to HA-9104-induced stabilization”, the thermal stabilization (UBE2F [2]) was “V98 mutant was a little more thermo-stable and less stabilized by HA-9104” and the dTm (UBE2F [3]) was ~ 4 °C. For the same compound, the IC50 (UBE2F [4]) was about 49 µM.

From PMC9576757, “A small molecule inhibitor of the UBE2F-CRL5 axis induces apoptosis and radiosensitization in lung cancer” (Signal Transduction and Targeted Therapy, 2022)
